According to PubChem BioAssay (NCI):
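Dose response: 5 concentrations. Exposure: 48 h. Format: 96-well plates. Endpoint: linear interpolation; highest concentration if not reached. GI50 is the concentration that inhibits growth by half. The concentration for full growth arrest is given as TGI.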

Assays:
Assay in all cases: DTP human tumour cell line panel, 48 h
[1] = system: 786-0 renal
[2] = system: A498 renal
[3] = system: A549 NSCLC
[4] = system: ACHN renal
[5] = system: BT-549 breast
[6] = system: CAKI-1 renal
[7] = system: CCRF-CEM leukemia
[8] = system: COLO 205 colon
[9] = system: DU-145 prostate
[10] = system: EKVX NSCLC
[11] = system: HCC-2998 colon
[12] = system: HCT-116 colon
[13] = system: HCT-15 colon
[14] = system: HL-60(TB) leukemia
[15] = system: HOP-62 NSCLC
[16] = system: HOP-92 NSCLC
[17] = system: HS 578T breast
[18] = system: HT29 colon
[19] = system: IGROV1 ovarian
[20] = system: K-562 leukemia
[21] = system: KM12 colon
[22] = system: LOX IMVI melanoma
[23] = system: M14 melanoma
[24] = system: MALME-3M melanoma
[25] = system: MCF7 breast
[26] = system: MDA-MB-231 breast
[27] = system: MDA-MB-435
[28] = system: MDA-MB-468 breast
[29] = system: MOLT-4 leukemia
[30] = system: NCI-H226 lung
[31] = system: NCI-H23 lung
[32] = system: NCI-H460 lung
[33] = system: NCI-H522 lung
[34] = system: OVCAR-3 ovarian
[35] = system: OVCAR-4 ovarian
[36] = system: OVCAR-5 ovarian
[37] = system: OVCAR-8 ovarian
[38] = system: PC-3 prostate
[39] = system: RPMI-8226 leukemia
[40] = system: RXF 393 renal
[41] = system: SF-268 CNS
[42] = system: SF-295 CNS
[43] = system: SF-539 CNS
[44] = system: SK-MEL-2 melanoma
[45] = system: SK-MEL-28 melanoma
[46] = system: SK-MEL-5 melanoma
[47] = system: SK-OV-3 ovarian
[48] = system: SN12C renal
[49] = system: SNB-19 CNS
[50] = system: SNB-75 CNS
[51] = system: SR leukemia
[52] = system: SW-620 colon
[53] = system: T-47D breast
[54] = system: TK-10 renal
[55] = system: U251 CNS
[56] = system: UACC-257 melanoma
[57] = system: UACC-62 melanoma
[58] = system: UO-31 renal

Compound `N#CC1=C(c2cccs2)Nc2c(c(-c3ccccc3)nn2-c2ccccc2)C12C(=O)Nc1ccccc12` (stereo unspecified) has a GI50 [1] of 15.6 µM, a TGI [1] of 31.1 µM and a GI50 [2] of 17.8 µM. For the same compound, the TGI [2] was 35.3 µM, the GI50 [3] was 10.2 µM and the TGI [3] was 23 µM. It also gave a GI50 [4] of 12.6 µM, a TGI [4] of 26.4 µM and a GI50 [5] of 5.86 µM. The TGI [5] was 21 µM, the GI50 [6] was 15.7 µM and the TGI [6] was 35 µM. For the same compound, the GI50 [7] was 7.52 µM, the TGI [7] was 46.8 µM and the GI50 [8] was 15.5 µM. It also gave a TGI [8] of 34.9 µM, a GI50 [9] of 20.3 µM and a TGI [9] of 46.6 µM. For the same compound, the GI50 [10] was 11.2 µM, the TGI [10] was 33.9 µM and the GI50 [11] was 14 µM. It also gave a TGI [11] of 35.6 µM, a GI50 [12] of 11.9 µM and a TGI [12] of 28.1 µM. For the same compound, the GI50 [13] was 8.92 µM, the TGI [13] was 24 µM and the GI50 [14] was 5.75 µM. For the same compound, the TGI [14] was 45.6 µM, the GI50 [15] was 17 µM and the TGI [15] was 44.1 µM. For the same compound, the GI50 [16] was 3.52 µM, the TGI [16] was 15 µM and the GI50 [17] was 14.4 µM. For the same compound, the TGI [17] was 44.9 µM, the GI50 [18] was 14 µM and the TGI [18] was 28.3 µM. For the same compound, the GI50 [19] was 16.2 µM, the TGI [19] was 34.4 µM and the GI50 [20] was 6.17 µM. For the same compound, the TGI [20] was 38.9 µM, the GI50 [21] was 5.13 µM and the TGI [21] was 20.4 µM. The GI50 [22] was 14.4 µM, the TGI [22] was 32.4 µM and the GI50 [23] was 15 µM. The TGI [23] was 32.7 µM, the GI50 [24] was 15.9 µM and the TGI [24] was 30 µM. For the same compound, the GI50 [25] was 12.8 µM, the TGI [25] was 26.5 µM and the GI50 [26] was 16.4 µM. It also gave a TGI [26] of 33.8 µM, a GI50 [27] of 17.8 µM and a TGI [27] of 37.2 µM. The GI50 [28] was 11.4 µM, the TGI [28] was 32.4 µM and the GI50 [29] was 12 µM. It also gave a TGI [29] of 41.1 µM, a GI50 [30] of 16.9 µM and a TGI [30] of 42.5 µM. It also gave a GI50 [31] of 12.9 µM, a TGI [31] of 31.8 µM and a GI50 [32] of 11.3 µM. For the same compound, the TGI [32] was 24.1 µM, the GI50 [33] was 2.99 µM and the TGI [33] was 15.8 µM. For the same compound, the GI50 [34] was 20.9 µM, the TGI [34] was 73.2 µM and the GI50 [35] was 8.25 µM. For the same compound, the TGI [35] was 27 µM, the GI50 [36] was 19.8 µM and the TGI [36] was 45.6 µM. The GI50 [37] was 14.8 µM, the TGI [37] was 29.5 µM and the GI50 [38] was 8.38 µM. The TGI [38] was 24.2 µM, the GI50 [39] was 8.6 µM and the TGI [39] was 83.7 µM. It also gave a GI50 [40] of 4.91 µM, a TGI [40] of 21.1 µM and a GI50 [41] of 18.9 µM. It also gave a TGI [41] of over 100 µM, a GI50 [42] of 12.8 µM and a TGI [42] of 33.3 µM. The GI50 [43] was 15.2 µM, the TGI [43] was 31.7 µM and the GI50 [44] was 15.8 µM. It also gave a TGI [44] of 38.3 µM, a GI50 [45] of 14.9 µM and a TGI [45] of 29.3 µM. It also gave a GI50 [46] of 13.7 µM, a TGI [46] of 29.4 µM and a GI50 [47] of 13.7 µM. It also gave a TGI [47] of 33.2 µM, a GI50 [48] of 19.6 µM and a TGI [48] of over 100 µM. It also gave a GI50 [49] of 9.25 µM, a TGI [49] of over 100 µM and a GI50 [50] of 8.48 µM. For the same compound, the TGI [50] was 30.8 µM, the GI50 [51] was 12.7 µM and the TGI [51] was 58.1 µM. It also gave a GI50 [52] of 9.57 µM, a TGI [52] of 28.6 µM and a GI50 [53] of 18.2 µM. It also gave a TGI [53] of 69.2 µM, a GI50 [54] of 13.6 µM and a TGI [54] of 31.1 µM. For the same compound, the GI50 [55] was 6.23 µM, the TGI [55] was 20.6 µM and the GI50 [56] was 18.1 µM. For the same compound, the TGI [56] was 48.3 µM, the GI50 [57] was 13.7 µM and the TGI [57] was 27.9 µM. For the same compound, the GI50 [58] was 9.9 µM and the TGI [58] was over 100 µM.
